According to patent publication US5262423A, “Rapamycin arylcarbonyl and alkoxycarbonyl carbamates as immunosuppressive and antifungal agents” (American Home Products Corporation, priority 1992, dated 1993):
pIC50: −log10 of the molar value. Values after ≈ are worked out from the molar mass of the structure shown. Like-named read-outs stand apart in the source and are kept apart here.

What was measured:
[1] = test system: pinch skin graft (allograft); assay: in vivo pinch skin graft survival (Skin Graft Model); set-up: species or system mice: male BALB/c donors, male C3 H recipients; conditions: intraperitoneally once daily for 6 consecutive days; mean ± S.D.; dose not given
Description: (§1) Immunosuppressive activity was evaluated in an in vitro standard pharmacological test procedure to measure lymphocyte proliferation (LAF) and in an in vivo procedure to evaluate the survival time of a pinch skin graft. Antifungal activity was determined against five strains of Candida albicans.
(§2) Immunosuppressive activity was evaluated in an in vitro standard pharmacological test procedure to measure lymphocyte proliferation (LAF) and in one in vivo standard pharmacological test procedure to evaluate the survival time of a pinch skin graft.
The in vivo test procedure is designed to determine the survival time of pinch skin graft from male BALB/c donors transplanted to male C3 H recipients. The method is adapted from Billingham R. E. and Medawar P. B., J. Exp. Biol. 28:385-402, (1951). Briefly, a pinch skin graft from the donor is grafted on the dorsum of the recipient as a allograft, and an isograft is used as control in the same region. The recipients are treated with the test compound, intraperitoneally once daily for 6 consecutive days. Untreated recipients serve as rejection control. The graft is monitored daily and observations are recorded until the graft becomes 95% area necrosis or the suture line is off. This is considered as the rejection day. The graft survival time is one day before the rejection day. The mean graft survival time (number of days ±S.D.) of the drug treatment group is compared with the control group.

[2] = test system: Candida albicans ATCC 38248; assay: plate test procedure for anti-Candida activity, strain ATCC 38248; type: cell-based
Description: as §1
(§3) Antifungal activity of the compounds of this invention is measured against 5 strains of Candida albicans using a plate test procedure for measurement of inhibition. The following represents the typical procedure used. The compound to be tested is placed on sterile dried 1/4" plate disks, and allowed to dry. Agar plates are seeded with fungi and allowed to solidify. The impregnated disks are placed on the seeded Agar surface and incubated for the time required for the particular culture. Results shown in Table II are expressed in Minimum Inhibitory Concentration (MIC) (μg/ml) to inhibit growth.

Candida albicans 3669 = assay: plate test procedure for anti-Candida activity, strain 3669; type: cell-based
Description: as §1, §3

[3] = test system: Candida albicans ATCC 38246; assay: plate test procedure for anti-Candida activity, strain ATCC 38246; type: cell-based
Description: as §1, §3

[4] = test system: thymocyte proliferation (lymphocyte proliferation, LAF); assay: comitogen-induced thymocyte proliferation procedure (LAF); type: cell-based, normal BALB/c mice; conditions: Mus musculus, 72 h, mouse thymocytes, 72 hours with PHA and IL-1, test compound (Analogs)
Description: as §1, §2
The comitogen-induced thymocyte proliferation procedure (LAF) was used as an in vitro measure of the immunosuppressive effects of representative compounds. Briefly, cells from the thymus of normal BALB/c mice were cultured for 72 hours with PHA and IL-1 and pulsed with tritiated thymidine during the last six hours. Cell are cultured with and without various concentrations of rapamycin, cyclosporin A, or test compound. Cells are harvested and incorporated; radiactivity is determined. Inhibition of lymphoproliferation is assessed in percent change in counts per minute from non-drug treated controls. The results are expressed by the following ratio: [formula] or as percent inhibition or IC50.

[5] = test system: Candida albicans ATCC 10231; assay: plate test procedure for anti-Candida activity, strain ATCC 10231; type: cell-based
Description: as §1, §3

[6] = test system: Candida albicans ATCC 38247; assay: plate test procedure for anti-Candida activity, strain ATCC 38247; type: cell-based
Description: as §1, §3

transplant rejection = conditions: cited from earlier work
[7] = test system: adjuvant arthritis model, a model for rheumatoid arthritis; conditions: in vivo; cited from earlier work
[8] = test system: experimental allergic encephalomyelitis model, a model for multiple sclerosis; conditions: in vivo; cited from earlier work
tumor = conditions: alone or in combination with picibanil; cited from earlier work
[9] = test system: formation of IgE-like antibodies; conditions: in vivo; cited from earlier work
Candida albicans = conditions: in vitro and in vivo; cited from earlier work
fungi = conditions: cited from earlier work
[10] = ATCC38248, Candida albicans ATCC 38248, plate test, read-out: Minimal Inhibitory Concentration (MIC), ATCC 38248
[11] = Candida albicans 3669, plate test, read-out: Minimal Inhibitory Concentration (MIC), 3669
[12] = ATCC38246, Candida albicans ATCC 38246, plate test, read-out: Minimal Inhibitory Concentration (MIC), ATCC 38246
[13] = ATCC10231, Candida albicans ATCC 10231, plate test, read-out: Minimal Inhibitory Concentration (MIC), ATCC 10231
[14] = ATCC38247, Candida albicans ATCC 38247, plate test, read-out: Minimal Inhibitory Concentration (MIC), ATCC 38247

Compound: CO[C@H]1C[C@@H]2CC[C@@H](C)[C@@](O)(O2)C(=O)C(=O)N2CCCC[C@H]2C(=O)O[C@H]([C@H](C)C[C@@H]2CC[C@@H](OC(=O)NC(=O)c3ccccc3)[C@H](OC)C2)CC(=O)[C@H](C)/C=C(\C)[C@@H](OC(=O)CN(C)C)[C@@H](OC)C(=O)[C@H](C)C[C@H](C)/C=C/C=C/C=C/1C [Example 2, Rapamycin 31-ester with N,N-dimethylglycine, 42-ester with benzoylcarbamic acid]
- Skin Graft Model (Survival time days) [1]: 10.4 ± 0.55 days
- MIC [2, 10]: 0.4 µg/mL (≈ 0.349 µM)
- MIC (Candida albicans 3669; [11]): 0.4 µg/mL (≈ 0.349 µM)
- MIC [3, 12]: 0.4 µg/mL (≈ 0.349 µM)
- pIC50 [4]: 8.32
- MIC [5, 13]: 0.1 µg/mL (≈ 0.0872 µM)
- MIC [6, 14]: 0.1 µg/mL (≈ 0.0872 µM)

Compound: C=CC[C@@H]1/C=C(\C)C[C@H](C)C[C@H](OC)[C@H]2O[C@@](O)(C(=O)C(=O)N3CCCC[C@H]3C(=O)O[C@H](/C(C)=C/[C@@H]3CC[C@@H](O)[C@H](OC)C3)[C@H](C)[C@@H](O)CC1=O)[C@H](C)C[C@@H]2OC [FK-506]
- inhibition of transplant rejection / immunosuppressive effect (transplant rejection): effective as immunosuppressive agents

Compound: CO[C@H]1C[C@@H]2CC[C@@H](C)[C@@](O)(O2)C(=O)C(=O)N2CCCC[C@H]2C(=O)O[C@H]([C@H](C)C[C@@H]2CC[C@@H](OC(=O)NC(=O)c3ccccc3)[C@H](OC)C2)CC(=O)[C@H](C)/C=C(\C)[C@@H](O)[C@@H](OC)C(=O)[C@H](C)C[C@H](C)/C=C/C=C/C=C/1C [Example 1, Rapamycin 42-ester with benzoylcarbamic acid]
- Skin Graft Model (Survival time days) [1]: 10.5 ± 0.55 days
- MIC [2, 10]: 0.1 µg/mL (≈ 0.0942 µM)
- MIC (Candida albicans 3669; [11]): 0.1 µg/mL (≈ 0.0942 µM)
- MIC [3, 12]: 0.1 µg/mL (≈ 0.0942 µM)
- pIC50 [4]: 8.85
- MIC [5, 13]: 0.05 µg/mL (≈ 0.0471 µM)
- MIC [6, 14]: 0.05 µg/mL (≈ 0.0471 µM)

Compound: COC(=O)NC(=O)O[C@@H]1CC[C@@H](C[C@@H](C)[C@@H]2CC(=O)[C@H](C)/C=C(\C)[C@@H](O)[C@@H](OC)C(=O)[C@H](C)C[C@H](C)/C=C/C=C/C=C(\C)[C@@H](OC)C[C@@H]3CC[C@@H](C)[C@@](O)(O3)C(=O)C(=O)N3CCCC[C@H]3C(=O)O2)C[C@H]1OC [Example 4, Rapamycin 42-ester with N-methoxycarbonylcarbamic acid]
- Skin Graft Model (Survival time days) [1]: 10.33 ± 0.52 days
- MIC [2, 10]: 0.1 µg/mL (≈ 0.0985 µM)
- MIC (Candida albicans 3669; [11]): 0.2 µg/mL (≈ 0.197 µM)
- MIC [3, 12]: 0.2 µg/mL (≈ 0.197 µM)
- pIC50 [4]: 8.57
- MIC [5, 13]: 0.05 µg/mL (≈ 0.0492 µM)
- MIC [6, 14]: 0.05 µg/mL (≈ 0.0492 µM)

Compound: CO[C@H]1C[C@@H]2CC[C@@H](C)[C@@](O)(O2)C(=O)C(=O)N2CCCC[C@H]2C(=O)O[C@H]([C@H](C)C[C@@H]2CC[C@@H](O)[C@H](OC)C2)CC(=O)[C@H](C)/C=C(\C)[C@@H](O)[C@@H](OC)C(=O)[C@H](C)C[C@H](C)/C=C/C=C/C=C/1C [Rapamycin]
- effect in adjuvant arthritis model [7]: effective
- Skin Graft Model (Survival time days) [1]: > 12.0 days
- MIC ([2]; Candida albicans, ATCC38248, read-out: Minimal Inhibitory Concentration (MIC), ATCC 38248): 0.006 µg/mL (≈ 0.00656 µM)
- MIC (Candida albicans 3669; Candida albicans, 3669, read-out: Minimal Inhibitory Concentration (MIC), 3669): 0.025 µg/mL (≈ 0.0273 µM)
- effect in experimental allergic encephalomyelitis model [8]: effective
- MIC ([3]; Candida albicans, ATCC38246, read-out: Minimal Inhibitory Concentration (MIC), ATCC 38246): 0.025 µg/mL (≈ 0.0273 µM)
- antitumor activity (tumor): shown to have antitumor activity
- MIC ([5]; Candida albicans, ATCC10231, read-out: Minimal Inhibitory Concentration (MIC), ATCC 10231): 0.003 µg/mL (≈ 0.00328 µM)
- MIC ([6]; Candida albicans, ATCC38247, read-out: Minimal Inhibitory Concentration (MIC), ATCC 38247): 0.003 µg/mL (≈ 0.00328 µM)
- inhibition of transplant rejection / immunosuppressive effect (transplant rejection): effective in inhibiting transplant rejection
- inhibition of formation of IgE-like antibodies [9]: effectively inhibited the formation of IgE-like antibodies
- antifungal activity (Candida albicans): antifungal activity, particularly against Candida albicans, both in vitro and in vivo

Compound: Cyclosporin A
- inhibition of transplant rejection / immunosuppressive effect (transplant rejection): effective as immunosuppressive agents

Compound: 33-desmethylrapamycin
- antifungal and immunosuppressant activities (fungi): antifungal and immunosuppressant activities

Compound: CO[C@H]1C[C@@H]2CC[C@@H](C)[C@@](O)(O2)C(=O)C(=O)N2CCCC[C@H]2C(=O)O[C@H]([C@H](C)C[C@@H]2CC[C@@H](OC(=O)NC(=O)c3ccccc3)[C@H](OC)C2)CC(=O)[C@H](C)/C=C(\C)[C@@H](OC(=O)NC(=O)c2ccccc2)[C@@H](OC)C(=O)[C@H](C)C[C@H](C)/C=C/C=C/C=C/1C [Example 3, Rapamycin 31,42 diester with benzoylcarbamic acid]
- pIC50 [4]: 8.92
